SMILES strings stand for the structures. Where “and” joins values, the source holds several entries; their conditions need not be identical. Equal entries are not always repeated.

The values that follow come from ChEMBL document CHEMBL5308504, “Tm Shift (DSF) assay results for EUbOPEN Chemogenomics Library” (2023).

Experiment [1] deals with T1, Peregrin (Homo sapiens) (UniProt P55201).
T1 sequence (whole entry): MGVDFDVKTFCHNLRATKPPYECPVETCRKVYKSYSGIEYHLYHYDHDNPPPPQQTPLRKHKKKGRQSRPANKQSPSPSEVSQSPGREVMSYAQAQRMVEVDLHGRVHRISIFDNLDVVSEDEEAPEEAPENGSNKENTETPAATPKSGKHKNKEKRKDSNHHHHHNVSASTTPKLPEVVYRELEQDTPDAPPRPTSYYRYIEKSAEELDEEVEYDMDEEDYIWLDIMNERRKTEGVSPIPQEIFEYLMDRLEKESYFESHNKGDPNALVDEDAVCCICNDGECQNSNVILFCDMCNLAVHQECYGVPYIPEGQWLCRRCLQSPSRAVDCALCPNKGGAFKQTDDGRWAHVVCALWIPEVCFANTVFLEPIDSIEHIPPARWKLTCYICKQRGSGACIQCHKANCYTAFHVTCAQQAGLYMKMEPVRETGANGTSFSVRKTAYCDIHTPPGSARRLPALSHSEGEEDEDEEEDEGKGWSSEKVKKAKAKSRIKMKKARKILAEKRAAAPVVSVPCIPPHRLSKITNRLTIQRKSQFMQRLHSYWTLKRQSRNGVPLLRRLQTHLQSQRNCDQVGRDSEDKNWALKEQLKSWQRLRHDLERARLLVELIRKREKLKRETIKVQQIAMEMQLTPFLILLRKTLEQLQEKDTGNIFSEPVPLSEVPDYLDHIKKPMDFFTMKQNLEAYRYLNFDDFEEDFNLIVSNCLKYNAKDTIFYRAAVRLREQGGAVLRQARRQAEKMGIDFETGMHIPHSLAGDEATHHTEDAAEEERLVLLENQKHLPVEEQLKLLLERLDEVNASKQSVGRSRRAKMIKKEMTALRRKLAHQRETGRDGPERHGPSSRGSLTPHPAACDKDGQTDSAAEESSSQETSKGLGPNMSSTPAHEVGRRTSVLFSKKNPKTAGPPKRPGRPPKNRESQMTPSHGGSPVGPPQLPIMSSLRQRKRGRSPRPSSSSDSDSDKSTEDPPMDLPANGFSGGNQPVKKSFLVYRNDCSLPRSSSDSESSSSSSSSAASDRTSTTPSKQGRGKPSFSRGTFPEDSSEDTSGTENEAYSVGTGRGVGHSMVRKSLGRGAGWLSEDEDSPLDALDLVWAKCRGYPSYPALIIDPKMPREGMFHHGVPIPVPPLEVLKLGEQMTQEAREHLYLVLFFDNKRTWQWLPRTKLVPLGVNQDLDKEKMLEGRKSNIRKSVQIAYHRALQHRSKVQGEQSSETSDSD
The note with it: Compound concentration 20.0 uM, Protein concentration 2.0 uM, Result type QC Liability.

Experiment [2] addresses Fibroblast growth factor receptor 3 (Homo sapiens) (UniProt P22607). The conditions noted are these: Compound concentration 20.0 uM, Protein concentration 2.0 uM, Result type QC Liability.
Description: Thermal Shift Assay. Domain: start/stop: P449-E759

Fibroblast growth factor receptor 3 (Homo sapiens), sequence (P22607 23-806 limits assumed): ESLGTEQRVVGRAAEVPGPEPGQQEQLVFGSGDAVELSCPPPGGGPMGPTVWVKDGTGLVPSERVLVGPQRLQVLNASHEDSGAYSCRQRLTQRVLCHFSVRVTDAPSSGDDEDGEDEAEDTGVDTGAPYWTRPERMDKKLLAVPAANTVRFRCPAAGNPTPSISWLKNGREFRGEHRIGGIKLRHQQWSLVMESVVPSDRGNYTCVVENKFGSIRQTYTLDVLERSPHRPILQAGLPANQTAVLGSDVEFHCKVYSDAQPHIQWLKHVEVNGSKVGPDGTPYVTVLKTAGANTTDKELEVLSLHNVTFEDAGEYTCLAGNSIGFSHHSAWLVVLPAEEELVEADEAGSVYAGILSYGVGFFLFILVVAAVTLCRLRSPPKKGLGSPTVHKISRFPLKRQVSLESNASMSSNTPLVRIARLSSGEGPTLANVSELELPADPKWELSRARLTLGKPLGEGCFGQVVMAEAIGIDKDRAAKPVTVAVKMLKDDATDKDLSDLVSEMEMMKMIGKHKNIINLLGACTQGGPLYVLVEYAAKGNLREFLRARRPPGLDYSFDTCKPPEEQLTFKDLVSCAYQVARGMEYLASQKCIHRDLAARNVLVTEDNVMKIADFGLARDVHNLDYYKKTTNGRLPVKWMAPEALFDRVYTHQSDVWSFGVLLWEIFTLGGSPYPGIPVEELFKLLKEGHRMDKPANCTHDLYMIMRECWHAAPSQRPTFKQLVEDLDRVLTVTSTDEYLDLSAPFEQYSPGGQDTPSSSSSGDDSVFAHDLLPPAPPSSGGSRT

Regarding `Cc1cc(C)nc(Nc2ncc(C(=O)NCCc3c(C)[nH]c4ccccc34)cn2)c1`, the ΔTm in experiment [1] is -2.14 °C; in experiment [2], 0.85 °C.
Regarding `FC(F)(F)c1ccc(CNc2ccc(Cc3c[nH]c4ncc(Cl)cc34)cn2)cn1`, the ΔTm is -0.43 °C in experiment [1] and 3.63 °C in experiment [2].
The corresponding values for `Cn1c(C(=O)N[C@@H](CO)c2ccc(C(=O)O)cc2)cc2cc(Cl)ccc21` are -2.2 °C and 0.81 °C.
`O=C(O)Cc1cc(I)c(Oc2ccc(O)c(I)c2)c(I)c1`: the thermal shift (ΔTm) in experiment [1] was -2.62 °C; in experiment [2], -0.28 °C.
With `Cc1cc(S(=O)(=O)N2CC(C)(C)c3cc(-c4ccc(C(F)(F)F)cc4)ccc32)ccc1OCC(=O)O`, the shift in melting temperature (ΔTm) was -7.85 °C in experiment [1] and 0.47 °C in experiment [2].
Consider `CCCCc1c(-c2ccccc2)nc(N)nc1-c1ccc(OCc2ccccc2)c(F)c1F`, for which the figures for the ΔTm in experiment [1] and in experiment [2] were -4.97 °C and -0.31 °C, respectively.
For `CNC(=O)COc1cc2cc(Nc3nc(N4CCC(C(=O)N(C)C)CC4)ncc3Cl)cc(OC)c2n(C)c1=O`, in that order: -2.49 °C and 0.39 °C.
As for `CC1CNCCc2c1nc1ccnn1c2N1CC(C(=O)N2CCC(C)(C)C2)C1` (centres undefined), the results for the ΔTm in experiment [1] and in experiment [2] were -1.64 °C and 0.56 °C, respectively.
For `Nc1ncnc2c1c(COc1cccc(Cl)c1)nn2C1CCOCC1`, the results for the ΔTm in experiment [1] and in experiment [2] were -1.86 °C and 1.63 °C, respectively.
On to `COC[C@@H](C)N[C@H]1CC[C@H](Nc2cc(-c3cccc(NCC4(C#N)CCOCC4)n3)c(Cl)cn2)CC1`, for which the ΔTm in experiment [1] is -1.02 °C; in experiment [2], 0.39 °C.
Take `O=C(NCCN1CCOCC1)c1ccc2nn(CCOc3ccc(Cl)cc3)cc2c1`: the ΔTm in experiment [1] is -2.21 °C; in experiment [2] it was 1.58 °C.
Turning to `COc1c(-c2cn(C3CCC(=O)NC3=O)nn2)csc1C(=O)N1CCCC1` (centres undefined), the ΔTm is -1.52 °C in experiment [1] and 0.59 °C in experiment [2].
The corresponding values for `Cc1nccc(COC(=O)N2C[C@@H]3[C@@H](CNC(=O)c4ccc5[nH]nnc5c4)[C@@H]3C2)n1` are -2.37 °C and 0.43 °C.
With `Cn1c(C2(NC(=O)c3ccc4c(C5CCCC5)c(-c5ncc(Br)cn5)n(C)c4c3)CCC2)nc2ccc(/C=C/C(=O)O)cc21`, the ΔTm is -4.81 °C and -4.1 °C in experiment [1]; -0.02 °C and -0.48 °C in experiment [2].
For `O=C(NCc1ccc(F)cc1)C1CCN(S(=O)(=O)c2cc(Cl)cc(Cl)c2)CC1`, the ΔTm was -1.81 °C in experiment [1] and 0.9 °C in experiment [2].
Regarding `O=C(O)CCCN1CCC[C@H]1COc1ccc(Oc2ccc(Cl)cc2)cc1`, the ΔTm in experiment [1] was -3.24 °C; in experiment [2], 0.41 °C.
Consider `Cc1nc(-c2ccc(C(F)(F)F)cc2)sc1C(=O)NCc1ccc(OC(C)(C)C(=O)O)cc1`, for which the ΔTm in experiment [1] was -1.41 °C; in experiment [2] it was 0.71 °C.
Regarding `COc1cc(-c2cn(C)c(=O)c3cnccc23)cc(OC)c1CN(C)C`, the ΔTm in experiment [1] came out at 1.79 °C; in experiment [2] it was 0.44 °C.
Consider `NCCCc1c(C(=O)O)[nH]c2ccc(C(=O)Nc3ccccc3)cc12`, for which the ΔTm in experiment [1] is -1.68 °C; in experiment [2], 0.79 °C.
As to `C[C@H](CCC(=O)O)[C@H]1CC[C@H]2[C@@H]3CC[C@@H]4C[C@H](O)CC[C@]4(C)[C@H]3CC[C@]12C`, the ΔTm in experiment [1] was -3.84 °C; in experiment [2], -0.33 °C.
With `Cn1nccc1-c1ccc(Sc2cccc(C3(C(N)=O)CCOCC3)c2)cc1`, the ΔTm in experiment [1] was -2.35 °C; in experiment [2] it was 0.47 °C.
As to `O=c1cc(C2CCNCC2)n2nc3cccc(Cl)c3c2[nH]1`, the ΔTm in experiment [1] was -1.18 °C; in experiment [2], 0.45 °C.
Turning to `Cc1cn([C@H](C)CC#N)c(=O)c2cc(Cn3nc(C(F)F)cc3Cl)nn12`, the ΔTm was -1.09 °C in experiment [1] and 0.78 °C in experiment [2].
For `CC(=O)Nc1cccc(-n2c(=O)n(C3CC3)c(=O)c3c(Nc4ccc(I)cc4F)n(C)c(=O)c(C)c32)c1`, the ΔTm in experiment [1] is -0.16 °C; in experiment [2] it was 0.38 °C.
For `C/C(=C\C(=O)Nc1ccccc1C(=O)O)c1ccc2ccccc2c1`, the ΔTm in experiment [1] is -1.56 °C; in experiment [2] it was 1.14 °C.
For `Cn1c(Nc2c(Cl)cccc2Cl)nc2ccc3nc[nH]c(=O)c3c21`, the ΔTm in experiment [1] was -0.59 °C; in experiment [2] it was 1.31 °C.
In the case of `C[C@@H](Oc1cc(-n2cnc3ccc(OC4CCN(C)CC4)cc32)sc1C(N)=O)c1ccccc1Cl`, the values for the ΔTm in experiment [1] and in experiment [2] were 0.36 °C and 3.37 °C, respectively.
Turning to `COC(=O)c1ccc2c(c1)NC(=O)/C2=C(\Nc1ccc(-c2nccn2C)cc1)c1ccccc1`, the values for the ΔTm in experiment [1] and in experiment [2] were -1.36 °C and 6.61 °C, respectively.
Turning to `CC(C)c1nc2c(c3c1[C@@H](c1ccc(C(F)(F)F)cc1)OC31CCOCC1)[C@@H](O)CC(C)(C)C2`, the ΔTm was -3.83 °C in experiment [1] and 0.98 °C in experiment [2].
Take `CN(C)c1ncc2cc(-c3ccc(-c4ncccc4F)cc3Cl)c(=O)n(C[C@H]3OC[C@H](N)CO3)c2n1`: the ΔTm in experiment [1] was -1.55 °C; in experiment [2], -0.14 °C.
Turning to `Cc1c(N2CCNCC2)nc2ccc(Br)cc2c1C(=O)NC[C@H](CCC(=O)O)c1ccccc1Cl`, the ΔTm was -2.38 °C in experiment [1] and 0.57 °C in experiment [2].
For `N#Cc1ccc(COc2ccc(Br)cc2CNCCO)cn1`, in that order: 0.18 °C and 0.63 °C.
As to `Cc1ccc2c(N)c(C(=O)NC3CCc4cc(N5CC6CCC(C5)N6)ccc4C3)sc2n1` (centres undefined), the ΔTm in experiment [1] was -1.37 °C; in experiment [2], 0.55 °C.
For `CN1CCN(C(=O)Cc2ccc(N/C(=C3\C(=O)Nc4cc(Cl)ccc43)c3ccccc3)cc2)CC1`, the ΔTm was -2.46 °C in experiment [1] and 5.68 °C in experiment [2].
For `CC(F)(F)CN1C(=O)c2[nH]nc(-c3cccc4[nH]c(=O)oc34)c2C1c1ccc(Oc2cc(C(F)(F)F)cc(C(F)(F)F)c2)cc1` (centres undefined), in that order: -0.66 °C and -5.32 °C.
In the case of `CC(C)(C)c1cnc(CSc2cnc(NC(=O)C3CCNCC3)s2)o1`, the ΔTm in experiment [1] was -1.47 °C; in experiment [2], 0.5 °C.
Consider `COc1cc2nc(-c3cc(F)ccc3O)nc(N[C@@H]3CNC[C@H]3C(C)(C)O)c2cc1OC`, for which the ΔTm stood at 0.34 °C in experiment [1] and 1.8 °C in experiment [2].
Turning to `COc1cc2c(NC3CCN(C(C)C)CC3)nc(C3CCCCC3)nc2cc1OCCCN1CCCC1`, the results for the ΔTm in experiment [1] and in experiment [2] were -0.55 °C and 0.95 °C, respectively.
Take `COc1cc(C(=O)NCCOCCOCCOCCC(=O)Nc2cccc3c2C(=O)N(C2CCC(=O)NC2=O)C3=O)ccc1Nc1ncc(C(F)(F)F)c(Oc2cccc3c2C(=O)CC3)n1` (centres undefined): the ΔTm is -2.32 °C in experiment [1] and -3.01 °C in experiment [2].
For `Cn1c(C2(NC(=O)c3ccc(NCC4CCCCC4)nc3)CCC2)nc2ccc(/C=C/C(=O)O)cc21`, the ΔTm is -2.12 °C in experiment [1] and 1.03 °C in experiment [2].
Regarding `C[C@@]1(Cc2ccc(C#N)cc2)C(=O)N(c2cc(Cl)cc(Cl)c2)c2ncc(C(=O)NC3(c4nc(C5CCC5)no4)CC3)n21`, the ΔTm in experiment [1] was 3.75 °C; in experiment [2] it was 3.32 °C.
Regarding `Cc1cc(-c2cnc(N)c3c(-c4ccc5scnc5c4)csc23)n(C)n1`, the ΔTm in experiment [1] was -1.57 °C; in experiment [2], 0.89 °C.
The corresponding values for `Cc1cc(CN)cc(C)c1-c1ncn(C)c1-c1ccnc2cc(F)ccc12` are -2.14 °C and 0.85 °C.
In the case of `CO[C@H]1CC[C@H](N(c2cc(F)c(Oc3ncc(Cn4nccn4)cc3C(F)(F)F)cc2C(=O)O)C(=O)[C@H]2CC[C@H](C)CC2)CC1`, the shift in melting temperature (ΔTm) is -4.09 °C in experiment [1] and 0.62 °C in experiment [2].
For the compound `CN(C)C(=O)Cn1cc(-c2ccc(-c3cncc4ccccc34)cc2)cn1`, the figures for the ΔTm in experiment [1] and in experiment [2] were -2.52 °C and 0.29 °C, respectively.
With `CN1CCCN(C(=O)c2cccc(-c3ccc(/C=C4/C(=O)Nc5ccc(Cl)cc54)o3)c2)CC1`, the ΔTm was -2.53 °C in experiment [1] and 2.18 °C in experiment [2].
Regarding `CC#CC(=O)N1CCN(c2nc(-c3ccc(Oc4ccccc4)cc3)c(C(N)=O)s2)CC1`, the figures for the ΔTm in experiment [1] and in experiment [2] were -1.23 °C and -1.02 °C, respectively.
The corresponding values for `CCCS(=O)(=O)N[C@H]1C[C@@H](N(C)c2ncnc3[nH]ccc23)C1` are -1.75 °C and 1.73 °C.
For `O[C@]1(C(F)(F)F)CCCC[C@H]1Nc1ccc(F)cc1`, in that order: 0.24 °C and 0.58 °C.
For `COc1cc2nc(C)nc(NC3(c4ccccc4)CC3)c2cc1OC`, the ΔTm in experiment [1] was -3.11 °C; in experiment [2], 0.4 °C.
`COc1cc(-c2cncc(-c3ccc(N4CCN(C(C)C)CC4)cc3)c2C)cc(F)c1C(=O)N1CCCC1`: the figures for the ΔTm in experiment [1] and in experiment [2] were -1.67 °C and 0.64 °C, respectively.
Take `Cc1ccccc1Oc1cc(-n2c(=O)cc(C(F)(F)F)[nH]c2=O)c2ccccc2c1Cl`: the ΔTm in experiment [1] was -1.36 °C; in experiment [2] it was 0.76 °C.
